Values of other authors, collected in patent US20030166006A1, “Glucose-1-phosphate thymidylyltransferase and method for selecting inhibitors thereof” (priority 2000, published 2003).

Biological target: RmlA from Pseudomonas aeruginosa (Pseudomonas aeruginosa, UniProt Q9HU22)
Conditions: allosteric feedback inhibition by final product of the four enzyme pathway; Melo & Glaser, 1965

Chain of RmlA from Pseudomonas aeruginosa (Q9HU22 1-293): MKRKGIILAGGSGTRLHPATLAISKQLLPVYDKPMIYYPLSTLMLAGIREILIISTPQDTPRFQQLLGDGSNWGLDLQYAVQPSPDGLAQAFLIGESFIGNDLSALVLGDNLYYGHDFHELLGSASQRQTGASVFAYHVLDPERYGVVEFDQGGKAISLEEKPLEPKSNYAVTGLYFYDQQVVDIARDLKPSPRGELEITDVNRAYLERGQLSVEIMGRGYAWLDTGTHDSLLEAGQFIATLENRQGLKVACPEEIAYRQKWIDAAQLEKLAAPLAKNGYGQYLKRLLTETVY

In the case of Cc1cn([C@H]2C[C@H](O)[C@@H](COP(=O)(O)OP(=O)(O)OC3OC(C)C(O)C(O)C3O)O2)c(=O)[nH]c1=O (stereo partly drawn) [dTDP-rhamnose, 2′-deoxy-thymidylyl-diphospho-L-rhamnose], the “inhibition of RmlA” value is listed as “strongly inhibited”.
